Data taken from publication PMC4871132 (Journal of chemical information and modeling, 2016).
Square brackets hold non-standard residues; d marks the D form. Peptide text beside a SMILES is read from it. * marks the point of attachment. ξ: configuration not given here. Cbz = O=C(OCc1ccccc1)*; ξM = CSCCC(N)C(=O)O

Tests used:
[1] = test system: P. falciparum NF54 strain (PfNF54); test: in vitro antiplasmodial assay, parasite lactate dehydrogenase assay; type: cell-based; conditions: Plasmodium falciparum, NF54, read-out: PfNF54 IC50
[2] = test system: P. falciparum NF54 strain (PfNF54); test: in vitro antiplasmodial assay, [3H] hypoxanthine incorporation assay; type: cell-based; conditions: Plasmodium falciparum, NF54, read-out: PfNF54 IC50
PfDHODH = PfDHODH (Plasmodium falciparum, UniProt Q08210); test: colorimetric DCIP PfDHODH enzyme inhibition assay; type: biochemical; conditions: for % PfDHODH Inhibition at 10 μM: 10 μM compound; for IC50: read-out: PfDHODH IC50
PfDHODH, sequence (Q08210 24-569): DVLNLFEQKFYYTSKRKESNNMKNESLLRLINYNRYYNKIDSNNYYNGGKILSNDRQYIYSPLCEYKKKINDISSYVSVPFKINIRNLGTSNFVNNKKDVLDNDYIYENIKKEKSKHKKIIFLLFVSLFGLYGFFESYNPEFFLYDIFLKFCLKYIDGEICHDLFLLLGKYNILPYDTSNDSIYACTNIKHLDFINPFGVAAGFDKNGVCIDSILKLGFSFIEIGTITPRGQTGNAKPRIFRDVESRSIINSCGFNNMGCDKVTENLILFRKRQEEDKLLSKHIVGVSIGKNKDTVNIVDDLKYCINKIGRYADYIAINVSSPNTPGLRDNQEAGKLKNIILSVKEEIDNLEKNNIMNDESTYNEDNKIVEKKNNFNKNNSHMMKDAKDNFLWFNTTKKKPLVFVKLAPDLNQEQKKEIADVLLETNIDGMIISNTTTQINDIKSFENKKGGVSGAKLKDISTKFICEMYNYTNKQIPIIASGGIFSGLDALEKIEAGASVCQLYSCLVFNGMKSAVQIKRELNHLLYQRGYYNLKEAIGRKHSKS

hDHODH = hDHODH (Homo sapiens, UniProt Q02127); test: colorimetric DCIP human DHODH enzyme inhibition assay; type: biochemical
hDHODH, sequence (Q02127 whole entry): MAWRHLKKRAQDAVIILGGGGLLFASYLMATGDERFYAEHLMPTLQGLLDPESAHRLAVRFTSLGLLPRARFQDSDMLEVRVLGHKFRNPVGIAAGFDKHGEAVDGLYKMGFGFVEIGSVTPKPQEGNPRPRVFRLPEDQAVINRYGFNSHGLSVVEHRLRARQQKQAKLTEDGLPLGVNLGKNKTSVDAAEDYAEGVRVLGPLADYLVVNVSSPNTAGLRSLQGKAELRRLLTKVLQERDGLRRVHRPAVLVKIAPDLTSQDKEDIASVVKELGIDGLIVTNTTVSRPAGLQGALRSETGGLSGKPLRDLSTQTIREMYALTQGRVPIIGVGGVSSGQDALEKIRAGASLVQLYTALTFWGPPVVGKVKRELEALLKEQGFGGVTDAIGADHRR

| SMILES | % PfDHODH Inhibition at 10 μM (PfDHODH) [%] | IC50 (PfDHODH) [nM] | further results |
| --- | --- | --- | --- |
| C[C@H]1[C@H](OC(=O)CCC(=O)O)O[C@@H]2O[C@@]3(C)CC[C@H]4[C@H](C)CC[C@@H]1[C@@]24OO3 [Artesunate] |  |  | IC50 [1]: 10 nM; IC50 [2]: 9 nM |
| CCN(CC)CCCC(C)Nc1ccnc2cc(Cl)ccc12 (stereo not shown) [Chloroquine] |  |  | IC50 [1]: 13 nM; IC50 [2]: 12 nM |
| C=CCN(CC(O)CO)c1ccccc1 (stereo not shown) [NSC58504] | 26 |  |  |
| COC(=O)C(CC(=O)c1ccc2ccccc2c1)OC (stereo not shown) [NSC72405] | 30 | > 100000 |  |
| CCOC(=O)C(Cc1c[nH]c2ccc([N+](=O)[O-])cc12)C(=O)OCC [NSC85231] | 28 |  |  |
| CCOC(=O)CSC(=S)Nc1ccc(Cl)cc1 [NSC85749] | 46 | > 100000 | PfDHODH inhibition, result in words (PfDHODH): moderately active at concentrations above 30 μM |
| CSCCC(NC(=O)COc1ccc(Cl)cc1Cl)C(=O)O (stereo not shown) [NSC87887] | 28 |  |  |
| CSCCC(NC(=O)OCc1ccccc1)C(=O)NCC(=O)O (stereo not shown) [NSC89636] (Cbz-[ξM]-Gly-OH) | 26 |  |  |
| CCOC(=O)C(=CNc1cc(Cl)ccc1Cl)C(=O)OCC [NSC137121] | 0 |  |  |
| CCOC(=O)c1cnc(SC)nc1Nc1ccc(Cl)cc1 [NSC165287] | 11 |  |  |
| CCOC(=O)C(=CNc1ccc2c(c1)OCO2)C(=O)OCC [NSC332161] |  | 5100 | % PfDHODH Inhibition at 10 μM (PfDHODH; 10 µM): 63% |
| CCOC(=O)C(=CNc1cccc(N(C)C)c1)C(=O)OCC [NSC336047] | 93 | 380 | species-selectivity for PfDHODH over hDHODH (hDHODH; from PfDHODH and hDHODH IC50): highly species selective; IC50 (hDHODH; read-out: hDHODH IC50): > 100000 nM |
| CCOC(=O)C(=CNc1cccc2c(O)cccc12)C(=O)OCC [NSC340225] | 3 |  |  |
| CCOC(=O)/C(C#N)=C/NCCc1c[nH]c2ccccc12 [NSC343533] | 50 | 20000 |  |
| O=NN(CCCl)C(=O)Nc1ccc2[nH]c3ccccc3c2c1 [NSC 116824] | 3 |  |  |
